Measured values taken from ChEMBL document CHEMBL1152853, “Synthesis and biological evaluation of novel symmetry bis-enediynes” (2009).
Activity calls are given as the source filed them. No cut-off for these calls is given here.

Columns and labels:
K562 [1] = assay: Cell cycle arrest in human K562 cells assessed as accumulation in G0/G1 phase at 10 uM after 24 hrs by flow cytometry analysis; type: functional
K562 [2] = assay: Cell cycle arrest in human K562 cells assessed as accumulation in G2/M phase at 10 uM after 24 hrs by flow cytometry analysis; type: functional
K562 [3] = assay: Cell cycle arrest in human K562 cells assessed as accumulation in Sub-G1 phase at 10 uM after 24 hrs by flow cytometry analysis; type: functional
K562 [4] = assay: Cell cycle arrest in human K562 cells assessed as accumulation in S phase at 10 uM after 24 hrs by flow cytometry analysis; type: functional
HT-29 = assay: Cytotoxicity against human HT-29 cells; type: functional
HCT-15 = assay: Cytotoxicity against human HCT15 cells; type: functional
T47D = assay: Cytotoxicity against human T47D cells; type: functional
U-251 = assay: Cytotoxicity against human U251 cells; type: functional
UO-31 = assay: Cytotoxicity against human UO31 cells; type: functional
CCRF-CEM = assay: Cytotoxicity against human CCRF-CEM cells; type: functional
K562 [5] = assay: Cell cycle arrest in human K562 cells assessed as accumulation in G2/M phase at 50 uM after 24 hrs by flow cytometry analysis; type: functional
[6] = Cytotoxicity against human Hs 578T cells; type: functional
LOX IMVI = assay: Cytotoxicity against human LOXIMVI cells; type: functional
SK-OV-3 = assay: Cytotoxicity against human SKOV3 cells; type: functional
NCI-H522 = assay: Cytotoxicity against human NCI-H522 cells; type: functional
[7] = Cytotoxicity against human […] cells; type: functional
MDA-MB-231 = assay: Cytotoxicity against human MDA-MB-231 cells; type: functional
K562 [8] = assay: Cytotoxicity against human K562 cells; type: functional
M14 = assay: Cytotoxicity against human M14 cells; type: functional
SF-539 = assay: Cytotoxicity against human SF539 cells; type: functional
HL-60 = assay: Cytotoxicity against human HL60 cells; type: functional
NCI-H226 = assay: Cytotoxicity against human NCI-H226 cells; type: functional
OVCAR-4 = assay: Cytotoxicity against human OVCAR4 cells; type: functional
SK-MEL-5 = assay: Cytotoxicity against human SK-MEL-5 cells; type: functional
SW-620 = assay: Cytotoxicity against human SW620 cells; type: functional
NCI-H460 = assay: Cytotoxicity against human NCI-H460 cells; type: functional
COLO 205 = assay: Cytotoxicity against human COLO205 cells; type: functional
NCI/ADR-RES = assay: Cytotoxicity against human NCI/ADR-RES cells; type: functional
KM12 = assay: Cytotoxicity against human KM12 cells; type: functional
K562 [9] = assay: Inhibition of G2/M phase related Cyclin B protein expression in human K562 cells at 20 uM by Western blotting analysis; type: functional, cell-based
SNB-19 = assay: Cytotoxicity against human SNB19 cells; type: functional
OVCAR-5 = assay: Cytotoxicity against human OVCAR5 cells; type: functional
HCC 2998 = assay: Cytotoxicity against human HCC2998 cells; type: functional
MCF7 = assay: Cytotoxicity against human MCF7 cells; type: functional
SN12C = assay: Cytotoxicity against human SN12C cells; type: functional
ACHN = assay: Cytotoxicity against human ACHN cells; type: functional
NCI-H23 = assay: Cytotoxicity against human NCI-H23 cells; type: functional
UACC-62 = assay: Cytotoxicity against human UACC62 cells; type: functional
K562 [10] = assay: Cell cycle arrest in human K562 cells assessed as accumulation in G0/G1 phase at 20 uM after 24 hrs by flow cytometry analysis; type: functional
786-0 = assay: Cytotoxicity against human 786-0 cells; type: functional
K562 [11] = assay: Inhibition of G2/M phase related Cyclin A protein expression in human K562 cells at 20 uM by Western blotting analysis; type: functional, cell-based
K562 [12] = assay: Cell cycle arrest in human K562 cells assessed as accumulation in G0/G1 phase at 50 uM after 24 hrs by flow cytometry analysis; type: functional
SF-295 = assay: Cytotoxicity against human SF295 cells; type: functional
A549 = assay: Cytotoxicity against human A549 cells; type: functional
RXF 393 = assay: Cytotoxicity against human […] cells; type: functional
EKVX = assay: Cytotoxicity against human EKVX cells; type: functional
K562 [13] = assay: Cell cycle arrest in human K562 cells assessed as accumulation in Sub-G1 phase at 20 uM after 24 hrs by flow cytometry analysis; type: functional
K562 [14] = assay: Cell cycle arrest in human K562 cells assessed as accumulation in S phase at 20 uM after 24 hrs by flow cytometry analysis; type: functional
K562 [15] = assay: Cell cycle arrest in human K562 cells assessed as accumulation in S phase at 50 uM after 24 hrs by flow cytometry analysis; type: functional
BT-549 = assay: Cytotoxicity against human BT549 cells; type: functional
CAKI-1 = assay: Cytotoxicity against human Caki1 cells; type: functional
MOLT-4 = assay: Cytotoxicity against human MOLT4 cells; type: functional
OVCAR-3 = assay: Cytotoxicity against human OVCAR-3 cells; type: functional
K562 [16] = assay: Cell cycle arrest in human K562 cells assessed as accumulation in Sub-G1 phase at 50 uM after 24 hrs by flow cytometry analysis; type: functional
SK-MEL-28 = assay: Cytotoxicity against human SK-MEL-28 cells; type: functional
MDA-MB-435 = assay: Cytotoxicity against human MDA-MB-435 cells; type: functional
SNB-75 = assay: Cytotoxicity against human SNB75 cells; type: functional
K562 [17] = assay: Cell cycle arrest in human K562 cells assessed as accumulation in G2/M phase at 20 uM after 24 hrs by flow cytometry analysis; type: functional
SF-268 = assay: Cytotoxicity against human SF268 cells; type: functional
DU-145 = assay: Cytotoxicity against human DU145 cells; type: functional
HOP-62 = assay: Cytotoxicity against human HOP62 cells; type: functional
PC-3 = assay: Cytotoxicity against human PC3 cells; type: functional
HCT-116 = assay: Cytotoxicity against human HCT116 cells; type: functional
UACC-257 = assay: Cytotoxicity against human UACC257 cells; type: functional
[18] = read-out: LC50 (the source's name)

`COc1cc2c(c(OC)c1OC)-c1ccc(OC)c(=O)cc1[C@@H](NC(C)=O)CC2` [COLCHICINE] showed an Activity (K562 [1]) of 8.8%, an Activity (K562 [2]) of 74.6% and an Activity (K562 [3]) of 14.59%. The Activity (K562 [4]) was 16.6%.
`C(#Cc1ccccc1C#Cc1ccccn1)c1ccc(OCCCCCCOc2ccc(C#Cc3ccccc3C#Cc3ccccn3)cc2)cc1` showed a GI50 (HT-29) of 7.89 µM, a CC50 (HT-29; [18]) of 27 µM and a GI50 (HCT-15) of 2.78 µM. For the same compound, the CC50 (HCT-15; [18]) was 22 µM, the GI50 (T47D) was 2.35 µM and the CC50 (T47D; [18]) was over 50 µM. The GI50 (U-251) was 5.63 µM, the CC50 (U-251; [18]) was 24.1 µM and the GI50 (UO-31) was 8.51 µM. The CC50 (UO-31; [18]) was over 50 µM, the GI50 (CCRF-CEM) was 0.04 µM and the CC50 (CCRF-CEM; [18]) was over 50 µM. The Activity (K562 [5]) was 24.9%, the GI50 [6] was 5.41 µM and the CC50 [6, 18] was 34.6 µM. The GI50 (LOX IMVI) was 0.27 µM, the CC50 (LOX IMVI; [18]) was 18.4 µM and the Activity (K562 [1]) was 15%. The GI50 (SK-OV-3) was 7.05 µM, the CC50 (SK-OV-3; [18]) was 42 µM and the GI50 (NCI-H522) was 2.87 µM. For the same compound, the CC50 (NCI-H522; [18]) was 38.4 µM, the GI50 [7] was 0.62 µM and the CC50 [7, 18] was over 50 µM. For the same compound, the GI50 (MDA-MB-231) was 2.67 µM, the CC50 (MDA-MB-231; [18]) was 23.5 µM and the GI50 (K562 [8]) was 1.38 µM. It also gave a CC50 (K562 [8]; [18]) of 22.8 µM, a GI50 (M14) of 7.47 µM and a CC50 (M14; [18]) of 41.6 µM. It also gave a GI50 (SF-539) of 2.38 µM, a CC50 (SF-539; [18]) of 21.3 µM and a GI50 (HL-60) of 0.09 µM. The CC50 (HL-60; [18]) was 2.7 µM, the GI50 (NCI-H226) was 6.53 µM and the CC50 (NCI-H226; [18]) was 30.3 µM. For the same compound, the GI50 (OVCAR-4) was 1.91 µM, the CC50 (OVCAR-4; [18]) was 23.4 µM and the GI50 (SK-MEL-5) was 2.3 µM. For the same compound, the CC50 (SK-MEL-5; [18]) was 20.5 µM, the GI50 (SW-620) was 4 µM and the CC50 (SW-620; [18]) was 22.7 µM. It also gave a GI50 (NCI-H460) of 1.69 µM, a CC50 (NCI-H460; [18]) of 18.7 µM and a GI50 (COLO 205) of 8.18 µM. The CC50 (COLO 205; [18]) was 30.9 µM, the GI50 (NCI/ADR-RES) was 2.3 µM and the CC50 (NCI/ADR-RES; [18]) was over 50 µM. For the same compound, the GI50 (KM12) was 1.38 µM, the CC50 (KM12; [18]) was 20.8 µM and the Activity (K562 [9]) was “Active”. For the same compound, the GI50 (SNB-19) was 6 µM, the CC50 (SNB-19; [18]) was 26.2 µM and the GI50 (OVCAR-5) was 3.56 µM. For the same compound, the CC50 (OVCAR-5; [18]) was 23.4 µM, the GI50 (HCC 2998) was 7.21 µM and the CC50 (HCC 2998; [18]) was 26.9 µM. It also gave a GI50 (MCF7) of 1.91 µM, a CC50 (MCF7; [18]) of 21.8 µM and a GI50 (SN12C) of 6.55 µM. The CC50 (SN12C; [18]) was 32.7 µM, the GI50 (ACHN) was 1.34 µM and the CC50 (ACHN; [18]) was 19.6 µM. For the same compound, the GI50 (NCI-H23) was 7.97 µM, the CC50 (NCI-H23; [18]) was over 50 µM and the GI50 (UACC-62) was 0.47 µM. For the same compound, the CC50 (UACC-62; [18]) was 16.4 µM, the Activity (K562 [10]) was 13.7% and the GI50 (786-0) was 7.45 µM. The CC50 (786-0; [18]) was over 50 µM, the Activity (K562 [11]) was “Active” and the Activity (K562 [12]) was 23%. The Activity (K562 [2]) was 35.8%, the GI50 (SF-295) was 1.24 µM and the CC50 (SF-295; [18]) was 15.8 µM. The GI50 (A549) was 6.41 µM, the CC50 (A549; [18]) was 43.2 µM and the GI50 (RXF 393) was 7.65 µM. The CC50 (RXF 393; [18]) was 27.9 µM, the GI50 (EKVX) was 4.33 µM and the CC50 (EKVX; [18]) was 22.9 µM. For the same compound, the Activity (K562 [13]) was 8.77%, the Activity (K562 [14]) was 59.7% and the Activity (K562 [15]) was 52.1%. It also gave a GI50 (BT-549) of 3.45 µM, a CC50 (BT-549; [18]) of 22.7 µM and a GI50 (CAKI-1) of 5.42 µM. It also gave a CC50 (CAKI-1; [18]) of 23.8 µM, a GI50 (MOLT-4) of 0.37 µM and a CC50 (MOLT-4; [18]) of 28 µM. The GI50 (OVCAR-3) was 2.14 µM, the CC50 (OVCAR-3; [18]) was 21.3 µM and the Activity (K562 [3]) was 8.57%. For the same compound, the Activity (K562 [16]) was 15.54%, the GI50 (SK-MEL-28) was 5.73 µM and the CC50 (SK-MEL-28; [18]) was 24.3 µM. The GI50 (MDA-MB-435) was 1.54 µM, the CC50 (MDA-MB-435; [18]) was 21.7 µM and the GI50 (SNB-75) was 5.13 µM. For the same compound, the CC50 (SNB-75; [18]) was 31.3 µM, the Activity (K562 [17]) was 26.6% and the GI50 (SF-268) was 3.63 µM. For the same compound, the CC50 (SF-268; [18]) was 22.7 µM, the GI50 (DU-145) was 6.14 µM and the CC50 (DU-145; [18]) was 24.9 µM. For the same compound, the GI50 (HOP-62) was 6.31 µM, the CC50 (HOP-62; [18]) was 38.8 µM and the Activity (K562 [4]) was 49.2%. For the same compound, the GI50 (PC-3) was 4.46 µM, the CC50 (PC-3; [18]) was 29.2 µM and the GI50 (HCT-116) was 8.69 µM. The CC50 (HCT-116; [18]) was over 50 µM, the GI50 (UACC-257) was 7.11 µM and the CC50 (UACC-257; [18]) was 31.4 µM.
